Assay results published in ChEMBL document CHEMBL1201862, “PubChem BioAssay data set” (2004).
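Method: 48-hour compound exposure of cells in 96-well plates, five concentrations, linear interpolation of endpoints. GI50: concentration for 50% inhibition of growth.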 Activity calls are given as the source filed them. Cut-off read from the data, not from the text of the source: active = GI50 up to about 1.1 µM and inactive = higher.

Key:
Test in all cases: inhibition of tumour cell growth, NCI panel, 48 h
[1] = test system: SR
[2] = test system: MOLT-4
[3] = test system: CAKI-1
[4] = test system: OVCAR-5
[5] = test system: UO-31
[6] = test system: COLO 205
[7] = test system: EKVX
[8] = test system: UACC-62
[9] = test system: A498
[10] = test system: SF-539
[11] = test system: SF-295
[12] = test system: KM12
[13] = test system: IGROV-1
[14] = test system: UACC-257
[15] = test system: NCI-H460
[16] = test system: OVCAR-4
[17] = test system: RPMI-8226
[18] = test system: HCT-15

SMILES	GI50 [1]	GI50 [2]	GI50 [3]	GI50 [4]	GI50 [5]	GI50 [6]	GI50 [7]	GI50 [8]	GI50 [9]	GI50 [10]	GI50 [11]	GI50 [12]	GI50 [13]	GI50 [14]	GI50 [15]	GI50 [16]	GI50 [17]	GI50 [18] [µM]
C=CCC1(CN(C)C)CC/C(=C\c2cc(OC)c(OC)c(OC)c2)C1=O (stereo not given)	19.6 µM (inactive)	27.5 µM (inactive)	19.4 µM (inactive)	51.9 µM (inactive)	26.5 µM (inactive)	17 µM (inactive)	12.2 µM (inactive)	21.3 µM (inactive)	29.4 µM (inactive)	18.7 µM (inactive)	38.1 µM (inactive)	17.4 µM (inactive)	29.4 µM (inactive)	27.7 µM (inactive)	18.8 µM (inactive)	22.2 µM (inactive)	24.5 µM (inactive)	20
O=c1c(Cc2ccccc2)c(O)cc2n1CCC2	> 100 µM (inactive)	> 100 µM (inactive)	> 100 µM (inactive)	> 100 µM (inactive)	> 100 µM (inactive)	> 100 µM (inactive)	> 100 µM (inactive)	> 100 µM (inactive)	> 100 µM (inactive)	> 100 µM (inactive)	> 100 µM (inactive)	> 100 µM (inactive)	> 100 µM (inactive)	> 100 µM (inactive)	> 100 µM (inactive)	> 100 µM (inactive)	> 100 µM (inactive)	> 100
O=S1(=O)C[C@H](O)[C@H](O)CS1	> 100 µM (inactive)	> 100 µM (inactive)	> 100 µM (inactive)	> 100 µM (inactive)	> 100 µM (inactive)	> 100 µM (inactive)	> 100 µM (inactive)	> 100 µM (inactive)	> 100 µM (inactive)	> 100 µM (inactive)	> 100 µM (inactive)	> 100 µM (inactive)	> 100 µM (inactive)	> 100 µM (inactive)	> 100 µM (inactive)	> 100 µM (inactive)	> 100 µM (inactive)	–
BrC(Br)([P+](c1ccccc1)(c1ccccc1)c1ccccc1)[P+](c1ccccc1)(c1ccccc1)c1ccccc1	14 µM (inactive)	7.91 µM (inactive)	7.98 µM (inactive)	21.6 µM (inactive)	23.6 µM (inactive)	16.4 µM (inactive)	19.9 µM (inactive)	14.6 µM (inactive)	22.4 µM (inactive)	13.6 µM (inactive)	29.4 µM (inactive)	–	18.1 µM (inactive)	19.5 µM (inactive)	22.8 µM (inactive)	12.1 µM (inactive)	6.87 µM (inactive)	20.4
O=CN/C=C\c1cc(O)ccc1O	3.91 µM (inactive)	18.2 µM (inactive)	12.7 µM (inactive)	> 100 µM (inactive)	13.8 µM (inactive)	14.2 µM (inactive)	15.5 µM (inactive)	11.6 µM (inactive)	74.8 µM (inactive)	10.7 µM (inactive)	28.4 µM (inactive)	> 22.5 µM (inactive)	> 40.1 µM (inactive)	11.7 µM (inactive)	10 µM (inactive)	12.7 µM (inactive)	13.6 µM (inactive)	9.31
Cc1ccccc1NC(=O)CC(=O)NNCC(=O)Nc1nnc(-c2ccccc2)s1	32.1 µM (inactive)	35.7 µM (inactive)	> 100 µM (inactive)	> 100 µM (inactive)	45 µM (inactive)	> 100 µM (inactive)	49.7 µM (inactive)	> 100 µM (inactive)	30.9 µM (inactive)	> 100 µM (inactive)	> 100 µM (inactive)	> 100 µM (inactive)	> 100 µM (inactive)	> 100 µM (inactive)	48.2 µM (inactive)	18 µM (inactive)	25 µM (inactive)	58.2
O=C(Nc1nc2c(ncn2C2OC(CO)C(O)C2O)c(=O)[nH]1)c1ccccc1 (stereo not given)	> 100 µM (inactive)	–	> 100 µM (inactive)	> 100 µM (inactive)	> 100 µM (inactive)	> 100 µM (inactive)	> 100 µM (inactive)	> 100 µM (inactive)	> 100 µM (inactive)	> 100 µM (inactive)	> 100 µM (inactive)	> 100 µM (inactive)	> 100 µM (inactive)	> 100 µM (inactive)	> 100 µM (inactive)	> 100 µM (inactive)	> 100 µM (inactive)	> 100
CC(C)C1=Cc2ccc3c(c2C(=O)C1=O)CCCC3(C)C [MILTIRONE]	2.36 µM (inactive)	2.19 µM (inactive)	2.47 µM (inactive)	19.4 µM (inactive)	6.64 µM (inactive)	4.19 µM (inactive)	14.5 µM (inactive)	5.66 µM (inactive)	17.4 µM (inactive)	5.33 µM (inactive)	17.2 µM (inactive)	16.1 µM (inactive)	5.93 µM (inactive)	3.08 µM (inactive)	17.3 µM (inactive)	1.77 µM (inactive)	2.12 µM (inactive)	1.99
Cc1cccc(NC2=NC(=O)C(CC(=O)Nc3ccccc3Cl)S2)c1 (stereo not given)	> 100 µM (inactive)	> 100 µM (inactive)	> 100 µM (inactive)	> 100 µM (inactive)	> 100 µM (inactive)	–	> 100 µM (inactive)	> 100 µM (inactive)	> 100 µM (inactive)	> 100 µM (inactive)	> 100 µM (inactive)	–	> 100 µM (inactive)	> 100 µM (inactive)	> 100 µM (inactive)	> 100 µM (inactive)	> 100 µM (inactive)	> 100
N#CC12Cc3cc4c(cc3-c3cccc(c31)CCN2C(=O)c1ccccc1)OCO4 (stereo not given)	> 100 µM (inactive)	> 100 µM (inactive)	–	> 100 µM (inactive)	> 100 µM (inactive)	> 100 µM (inactive)	> 100 µM (inactive)	> 100 µM (inactive)	53.3 µM (inactive)	> 100 µM (inactive)	> 100 µM (inactive)	> 100 µM (inactive)	> 100 µM (inactive)	> 100 µM (inactive)	–	–	> 100 µM (inactive)	–
CC(=O)NC1C(OCc2ccccc2)OC(CO)C(O)C1OCC(=O)N[C@@H](C)C(=O)N[C@H](CCC(=O)NCCNc1ccc([N+](=O)[O-])c2[nH]c3ccccc3c(=O)c12)C(N)=O (stereo not given in full)	58.7 µM (inactive)	–	29.9 µM (inactive)	37.2 µM (inactive)	13.8 µM (inactive)	15.9 µM (inactive)	20.8 µM (inactive)	18.7 µM (inactive)	24 µM (inactive)	2.21 µM (inactive)	37.4 µM (inactive)	20.1 µM (inactive)	–	22.1 µM (inactive)	8.99 µM (inactive)	23.3 µM (inactive)	23 µM (inactive)	13.5
CN(C)CCN(C)C(=O)C1CCCN1C(=O)OCc1ccccc1 (stereo not given)	38.6 µM (inactive)	> 100 µM (inactive)	–	> 100 µM (inactive)	> 100 µM (inactive)	> 100 µM (inactive)	> 100 µM (inactive)	> 100 µM (inactive)	> 100 µM (inactive)	> 100 µM (inactive)	> 100 µM (inactive)	–	> 100 µM (inactive)	> 100 µM (inactive)	> 100 µM (inactive)	> 100 µM (inactive)	> 100 µM (inactive)	> 100
Cc1oc2c(C)c(O)c3c(c2c1C1(C)OCCO1)C(=O)C=C(Cl)C3=O	> 100 µM (inactive)	> 100 µM (inactive)	> 100 µM (inactive)	> 100 µM (inactive)	> 100 µM (inactive)	> 100 µM (inactive)	> 100 µM (inactive)	–	> 100 µM (inactive)	> 100 µM (inactive)	> 100 µM (inactive)	> 100 µM (inactive)	> 100 µM (inactive)	> 100 µM (inactive)	> 100 µM (inactive)	> 100 µM (inactive)	> 100 µM (inactive)	> 100
Cc1ccccc1C1=[N+]([O-])c2ccccc2C1=O	54.7 µM (inactive)	19 µM (inactive)	–	27.6 µM (inactive)	19.1 µM (inactive)	15.7 µM (inactive)	21 µM (inactive)	20.1 µM (inactive)	83.8 µM (inactive)	19.1 µM (inactive)	23.7 µM (inactive)	13.2 µM (inactive)	18.3 µM (inactive)	14.7 µM (inactive)	19.7 µM (inactive)	–	39.2 µM (inactive)	14.4
Cc1ccc(NC(=O)C(=O)C2C(=O)N(c3ccccc3)N=C2N)cc1C (stereo not given)	> 100 µM (inactive)	> 100 µM (inactive)	> 100 µM (inactive)	> 100 µM (inactive)	> 100 µM (inactive)	> 100 µM (inactive)	> 100 µM (inactive)	> 100 µM (inactive)	> 100 µM (inactive)	> 100 µM (inactive)	> 100 µM (inactive)	> 100 µM (inactive)	> 100 µM (inactive)	> 100 µM (inactive)	–	> 100 µM (inactive)	> 100 µM (inactive)	> 100
CN(C)/C=C/C=C(/C=N/S(=O)(=O)C(F)(F)F)C1C=CN(S(=O)(=O)C(F)(F)F)C=C1	30.1 µM (inactive)	26.2 µM (inactive)	25.6 µM (inactive)	30.2 µM (inactive)	29.1 µM (inactive)	17.7 µM (inactive)	30.1 µM (inactive)	42.3 µM (inactive)	41 µM (inactive)	–	38.2 µM (inactive)	25 µM (inactive)	54.3 µM (inactive)	23.1 µM (inactive)	24.3 µM (inactive)	15.8 µM (inactive)	38.3 µM (inactive)	23.4
